{"source": "patent US12649750B2", "about": "“Macrocyclic compounds, compositions, and methods of using thereof” (Sionna Therapeutics Inc., priority 2022, dated 2026)", "key": {"[1]": {"target": "T1, CFTR (Homo sapiens, UniProt P13569, DEL508-508)", "T1 construct": "Primary human bronchial epithelial cells from a ΔF508 homozygous CF donor; host or cells: primary human bronchial epithelial cells (CF-HBE), ΔF508 homozygous donor", "T1 sequence (P13569 with tags, fused parts or gaps DEL508-508)": "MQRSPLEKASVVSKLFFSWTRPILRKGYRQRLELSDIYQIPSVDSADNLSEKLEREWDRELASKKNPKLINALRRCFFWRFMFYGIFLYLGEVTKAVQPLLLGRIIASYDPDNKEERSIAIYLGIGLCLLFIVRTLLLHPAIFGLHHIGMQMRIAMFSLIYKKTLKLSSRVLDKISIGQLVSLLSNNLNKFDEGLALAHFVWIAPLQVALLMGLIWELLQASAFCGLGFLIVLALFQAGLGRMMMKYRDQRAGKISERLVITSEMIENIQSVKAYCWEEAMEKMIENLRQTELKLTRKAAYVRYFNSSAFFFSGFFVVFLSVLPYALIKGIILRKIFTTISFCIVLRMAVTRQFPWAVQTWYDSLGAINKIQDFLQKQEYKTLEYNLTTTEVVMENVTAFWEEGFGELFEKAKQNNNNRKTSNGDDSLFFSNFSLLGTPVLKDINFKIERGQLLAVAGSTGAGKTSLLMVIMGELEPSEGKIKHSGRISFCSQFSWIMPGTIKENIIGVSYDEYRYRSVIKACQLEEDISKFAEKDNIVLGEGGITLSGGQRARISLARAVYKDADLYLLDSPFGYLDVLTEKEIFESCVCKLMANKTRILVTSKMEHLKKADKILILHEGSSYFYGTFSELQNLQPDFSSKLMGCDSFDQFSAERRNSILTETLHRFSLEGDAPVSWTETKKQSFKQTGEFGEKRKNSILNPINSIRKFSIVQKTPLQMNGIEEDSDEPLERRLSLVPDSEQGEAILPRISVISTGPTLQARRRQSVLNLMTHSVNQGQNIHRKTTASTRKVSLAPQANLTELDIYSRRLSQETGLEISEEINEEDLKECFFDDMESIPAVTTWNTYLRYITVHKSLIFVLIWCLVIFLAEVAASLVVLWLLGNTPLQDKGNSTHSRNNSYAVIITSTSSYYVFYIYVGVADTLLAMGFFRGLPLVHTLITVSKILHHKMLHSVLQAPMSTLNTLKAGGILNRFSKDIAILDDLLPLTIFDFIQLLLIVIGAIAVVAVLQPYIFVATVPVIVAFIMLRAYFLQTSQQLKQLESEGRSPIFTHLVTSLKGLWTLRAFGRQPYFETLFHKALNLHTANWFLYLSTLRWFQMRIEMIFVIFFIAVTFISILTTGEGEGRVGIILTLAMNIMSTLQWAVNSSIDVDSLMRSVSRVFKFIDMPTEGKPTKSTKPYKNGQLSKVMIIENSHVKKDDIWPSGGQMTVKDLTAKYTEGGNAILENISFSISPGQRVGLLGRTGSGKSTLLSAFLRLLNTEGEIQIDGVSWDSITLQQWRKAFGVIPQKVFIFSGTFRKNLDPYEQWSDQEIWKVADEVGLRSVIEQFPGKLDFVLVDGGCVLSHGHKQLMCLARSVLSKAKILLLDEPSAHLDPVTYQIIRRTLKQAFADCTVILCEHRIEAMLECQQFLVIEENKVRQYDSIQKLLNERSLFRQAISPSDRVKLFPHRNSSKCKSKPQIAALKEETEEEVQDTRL", "test": "TECC24 AUC fold over DMSO @10 μM, CFTR-mediated transepithelial chloride transport in CF-HBE cells", "assay_type": "cell-based", "conditions": "test agent AUC divided by DMSO vehicle AUC, primary CF-HBE cells, ΔF508 homozygous donor, 48 hours incubation", "summary_of_the_method": "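Value is ratio of test-agent to DMSO AUC of equivalent transepithelial Cl− current, integrated from forskolin (10 μM) stimulation to CFTR inhibitor-172 (20 μM) block, with benzamil 10 μM present. CF-HBE (ΔF508/ΔF508) cultures had 48 h compound exposure at 10 μM, 36.5° C before recording.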"}, "[2]": {"target": "T2, NBD1 (Homo sapiens, UniProt P13569)", "T2 construct": "Purified recombinant NBD1 was produced using previously described methods; made in house", "T2 sequence (P13569 423-646 limits assumed)": "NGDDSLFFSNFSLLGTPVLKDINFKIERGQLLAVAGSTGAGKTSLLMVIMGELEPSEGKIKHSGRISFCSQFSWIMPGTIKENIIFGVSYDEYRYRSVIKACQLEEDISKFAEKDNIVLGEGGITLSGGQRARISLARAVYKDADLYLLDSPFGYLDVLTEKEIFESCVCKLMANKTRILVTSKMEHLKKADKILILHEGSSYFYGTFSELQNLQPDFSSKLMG", "test": "Aggregation analysis using differential static light scattering (DSLS), thermal stability of NBD1 (ΔTagg)", "assay_type": "binding", "conditions": "ΔTagg versus DMSO control, NBD1 0.2 mg/ml", "summary_of_the_method": "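Thermal aggregation of purified NBD1 was followed by static light scattering during a 1° C./min ramp to 70° C. Protein was at 0.2 mg/ml with 2 mM ATP at pH7.6. Each compound's Tagg was referenced to DMSO controls.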"}}, "data": [{"smiles": "[2H]C([2H])([2H])C1(c2cccc(CC(C)C(=O)O)c2)CCCC(C)(C)CS(=O)(=O)CCc2c(c(F)cc3[nH]ccc23)Oc2ccc(F)c(c2)-c2nc1nn2C", "note": "(single isomer, unassigned) [Compound 10A, 3-[3-[22,28-difluoro-3,10,10-trimethyl-12,12-dioxo-6-(trideuteriomethyl)-24-oxa-12lambda6-thia-3,4,19,30-tetrazapentacyclo[23.3.1.12,5.015,23.016,20]triaconta-1(29),2(30),4,15,17,20,22,25,27-nonaen-6-yl]phenyl]-2-methyl-propanoic Acid]", "values": [{"measurement": "TECC (AUC, 10 μM)", "setting": "[1]", "value": "A (a TECC value less than 12 is marked “A”)"}, {"measurement": "DSLS 3D (100 μM ΔT)", "setting": "[2]", "value": "C (a value greater than 10 °C and less than or equal to 25 °C is marked “C”)"}]}, {"smiles": "[2H]C([2H])([2H])C1(c2cccc(CC(C)C(=O)O)c2)CCCC(C)(C)CS(=O)(=O)CCc2c(c(F)cc3[nH]ccc23)Oc2ccc(F)c(c2)-c2nc1nn2C", "note": "(single isomer, unassigned) [Compound 10B, 3-[3-[22,28-difluoro-3,10,10-trimethyl-12,12-dioxo-6-(trideuteriomethyl)-24-oxa-12lambda6-thia-3,4,19,30-tetrazapentacyclo[23.3.1.12,5.015,23.016,20]triaconta-1(29),2(30),4,15,17,20,22,25,27-nonaen-6-yl]phenyl]-2-methyl-propanoic Acid]", "values": [{"measurement": "TECC (AUC, 10 μM)", "setting": "[1]", "value": "A (a TECC value less than 12 is marked “A”)"}, {"measurement": "DSLS 3D (100 μM ΔT)", "setting": "[2]", "value": "B (a value above 5 °C and less than or equal to 10 °C is marked “B”)"}]}, {"smiles": "CC(Cc1cccc(C2(C)CCC(=O)C(C)(C)CS(=O)(=O)CCc3c(c(F)cc4[nH]ccc34)Oc3ccc(F)c(c3)-c3nc2nn3C)c1)C(=O)O", "note": "(single isomer, unassigned) [Compound 11A, 3-[3-[22,28-difluoro-3,6,10,10-tetramethyl-9,12,12-trioxo-24-oxa-12lambda6-thia-3,4,19,30-tetrazapentacyclo[23.3.1.12,5.015,23.016,20]triaconta-1(29),2(30),4,15,17,20,22,25,27-nonaen-6-yl]phenyl]-2-methyl-propanoic Acid]", "values": [{"measurement": "TECC (AUC, 10 μM)", "setting": "[1]", "value": "C (a value between 20 and 80 is marked “C”)"}, {"measurement": "DSLS 3D (100 μM ΔT)", "setting": "[2]", "value": "C (a value greater than 10 °C and less than or equal to 25 °C is marked “C”)"}]}, {"smiles": "CC(Cc1cccc(C2(C)CCC(=O)C(C)(C)CS(=O)(=O)CCc3c(c(F)cc4[nH]ccc34)Oc3ccc(F)c(c3)-c3nc2nn3C)c1)C(=O)O", "note": "(single isomer, unassigned) [Compound 11B, 3-[3-[22,28-difluoro-3,6,10,10-tetramethyl-9,12,12-trioxo-24-oxa-12lambda6-thia-3,4,19,30-tetrazapentacyclo[23.3.1.12,5.015,23.016,20]triaconta-1(29),2(30),4,15,17,20,22,25,27-nonaen-6-yl]phenyl]-2-methyl-propanoic Acid]", "values": [{"measurement": "TECC (AUC, 10 μM)", "setting": "[1]", "value": "A (a TECC value less than 12 is marked “A”)"}, {"measurement": "DSLS 3D (100 μM ΔT)", "setting": "[2]", "value": "A (an ΔTagg value less than or equal to 5 °C is marked “A”)"}]}, {"smiles": "Cn1nc2nc1-c1cc(ccc1F)Oc1c(F)cc3[nH]ccc3c1CCS(=O)(=O)CC1(CCCC2(C)c2cccc(CCC(=O)O)c2)CC1", "note": "(single isomer, unassigned) [Compound 12A, 3-[3-(22,28-difluoro-3,6-dimethyl-12,12-dioxo-spiro[24-oxa-12lambda6-thia-3,4,19,30-tetrazapentacyclo[23.3.1.12,5.015,23.016,20]triaconta-1(29),2(30),4,15,17,20,22,25,27-nonaene-10,1′-cyclopropane]-6-yl)phenyl]propanoic Acid]", "values": [{"measurement": "TECC (AUC, 10 μM)", "setting": "[1]", "value": "B (a value between 12-20 is marked “B”)"}, {"measurement": "DSLS 3D (100 μM ΔT)", "setting": "[2]", "value": "C (a value greater than 10 °C and less than or equal to 25 °C is marked “C”)"}]}, {"smiles": "Cn1nc2nc1-c1cc(ccc1F)Oc1c(F)cc3[nH]ccc3c1CCS(=O)(=O)CC1(CCCC2(C)c2cccc(CCC(=O)O)c2)CC1", "note": "(single isomer, unassigned) [Compound 12B, 3-[3-(22,28-difluoro-3,6-dimethyl-12,12-dioxo-spiro[24-oxa-12lambda6-thia-3,4,19,30-tetrazapentacyclo[23.3.1.12,5.015,23.016,20]triaconta-1(29),2(30),4,15,17,20,22,25,27-nonaene-10,1′-cyclopropane]-6-yl)phenyl]propanoic acid]", "values": [{"measurement": "TECC (AUC, 10 μM)", "setting": "[1]", "value": "C (a value between 20 and 80 is marked “C”)"}, {"measurement": "DSLS 3D (100 μM ΔT)", "setting": "[2]", "value": "A (an ΔTagg value less than or equal to 5 °C is marked “A”)"}]}, {"smiles": "CC(Cc1cccc(C2(C)CCCC3(CC3)CS(=O)(=O)CCc3c(c(F)cc4[nH]ccc34)Oc3ccc(F)c(c3)-c3nc2nn3C)c1)C(=O)O", "note": "(single isomer, unassigned) [Compound 13A, 3-[3-(22,28-difluoro-3,6-dimethyl-12,12-dioxo-spiro[24-oxa-12lambda6-thia-3,4,19,30-tetrazapentacyclo[23.3.1.12,5.015,23.016,20]triaconta-1(29),2(30),4,15,17,20,22,25,27-nonaene-10,1′-cyclopropane]-6-yl)phenyl]-2-methyl-propanic Acid]", "values": [{"measurement": "TECC (AUC, 10 μM)", "setting": "[1]", "value": "B (a value between 12-20 is marked “B”)"}, {"measurement": "DSLS 3D (100 μM ΔT)", "setting": "[2]", "value": "C (a value greater than 10 °C and less than or equal to 25 °C is marked “C”)"}]}, {"smiles": "CC(Cc1cccc(C2(C)CCCC3(CC3)CS(=O)(=O)CCc3c(c(F)cc4[nH]ccc34)Oc3ccc(F)c(c3)-c3nc2nn3C)c1)C(=O)O", "note": "(single isomer, unassigned) [Compound 13B, 3-[3-(22,28-difluoro-3,6-dimethyl-12,12-dioxo-spiro[24-oxa-12lambda6-thia-3,4,19,30-tetrazapentacyclo[23.3.1.12,5.015,23.016,20]triaconta-1(29),2(30),4,15,17,20,22,25,27-nonaene-10,1′-cyclopropane]-6-yl)phenyl]-2-methyl-propanic Acid]", "values": [{"measurement": "TECC (AUC, 10 μM)", "setting": "[1]", "value": "C (a value between 20 and 80 is marked “C”)"}, {"measurement": "DSLS 3D (100 μM ΔT)", "setting": "[2]", "value": "A (an ΔTagg value less than or equal to 5 °C is marked “A”)"}]}, {"smiles": "[2H]C([2H])([2H])C1(c2cccc(/C=C/C(=O)O)c2)CCCC(C)(C)CS(=O)(=O)CCc2c(c(F)cc3[nH]ccc23)Oc2ccc(F)c(c2)-c2nc1nn2C", "note": "(single isomer, unassigned) [Compound 15A, (E)-3-[3-[22,28-difluoro-3,10,10-trimethyl-12,12-dioxo-6-(trideuteriomethyl)-24-oxa-12lambda6-thia-3,4,19,30-tetrazapentacyclo[23.3.1.12,5.015,23.016,20]triaconta-1(29),2(30),4,15,17,20,22,25,27-nonaen-6-yl]phenyl]prop-2-enoic Acid]", "values": [{"measurement": "TECC (AUC, 10 μM)", "setting": "[1]", "value": "A (a TECC value less than 12 is marked “A”)"}, {"measurement": "DSLS 3D (100 μM ΔT)", "setting": "[2]", "value": "C (a value greater than 10 °C and less than or equal to 25 °C is marked “C”)"}]}, {"smiles": "[2H]C([2H])([2H])C1(c2cccc(/C=C/C(=O)O)c2)CCCC(C)(C)CS(=O)(=O)CCc2c(c(F)cc3[nH]ccc23)Oc2ccc(F)c(c2)-c2nc1nn2C", "note": "(single isomer, unassigned) [Compound 15B, (E)-3-[3-[22,28-difluoro-3,10,10-trimethyl-12,12-dioxo-6-(trideuteriomethyl)-24-oxa-12lambda6-thia-3,4,19,30-tetrazapentacyclo[23.3.1.12,5.015,23.016,20]triaconta-1(29),2(30),4,15,17,20,22,25,27-nonaen-6-yl]phenyl]prop-2-enoic Acid]", "values": [{"measurement": "TECC (AUC, 10 μM)", "setting": "[1]", "value": "A (a TECC value less than 12 is marked “A”)"}, {"measurement": "DSLS 3D (100 μM ΔT)", "setting": "[2]", "value": "B (a value above 5 °C and less than or equal to 10 °C is marked “B”)"}]}, {"smiles": "[2H]C([2H])([2H])C1(c2cccc(/C=C(\\C)C(=O)O)c2)CCCC(C)(C)CS(=O)(=O)CCc2c(c(F)cc3[nH]ccc23)Oc2ccc(F)c(c2)-c2nc1nn2C", "note": "(single isomer, unassigned) [Compound 16A, (E)-3-[3-[22,28-difluoro-3,10,10-trimethyl-12,12-dioxo-6-(trideuteriomethyl)-24-oxa-12lambda6-thia-3,4,19,30-tetrazapentacyclo[23.3.1.12,5.015,23.016,20]triaconta-1(29),2(30),4,15,17,20,22,25,27-nonaen-6-yl]phenyl]-2-methyl-prop-2-enoic acid]", "values": [{"measurement": "TECC (AUC, 10 μM)", "setting": "[1]", "value": "A (a TECC value less than 12 is marked “A”)"}, {"measurement": "DSLS 3D (100 μM ΔT)", "setting": "[2]", "value": "A (an ΔTagg value less than or equal to 5 °C is marked “A”)"}]}, {"smiles": "[2H]C([2H])([2H])C1(c2cccc(/C=C(\\C)C(=O)O)c2)CCCC(C)(C)CS(=O)(=O)CCc2c(c(F)cc3[nH]ccc23)Oc2ccc(F)c(c2)-c2nc1nn2C", "note": "(single isomer, unassigned) [Compound 16B, (E)-3-[3-[22,28-difluoro-3,10,10-trimethyl-12,12-dioxo-6-(trideuteriomethyl)-24-oxa-12lambda6-thia-3,4,19,30-tetrazapentacyclo[23.3.1.12,5.015,23.016,20]triaconta-1(29),2(30),4,15,17,20,22,25,27-nonaen-6-yl]phenyl]-2-methyl-prop-2-enoic acid]", "values": [{"measurement": "TECC (AUC, 10 μM)", "setting": "[1]", "value": "A (a TECC value less than 12 is marked “A”)"}, {"measurement": "DSLS 3D (100 μM ΔT)", "setting": "[2]", "value": "C (a value greater than 10 °C and less than or equal to 25 °C is marked “C”)"}]}, {"smiles": "C/C(=C\\c1cc(F)cc(C2(C)CCCC(C)(C)CS(=O)(=O)CCc3c(c(F)c(F)c4[nH]ccc34)Oc3ccc(F)c(c3)-c3nc2nn3C)c1)C(=O)O", "note": "(single isomer, unassigned) [Compound 17A, (E)-3-(3-fluoro-5-((Z)-26,46,47-trifluoro-11,9,9,13-tetramethyl-7,7-dioxido-11H,41H-3-oxa-7-thia-4(5,4)-indola-1(5,3)-triazola-2(1,3)-benzenacyclotridecaphane-13-yl)phenyl)-2-methylacrylic acid]", "values": [{"measurement": "TECC (AUC, 10 μM)", "setting": "[1]", "value": "A (a TECC value less than 12 is marked “A”)"}, {"measurement": "DSLS 3D (100 μM ΔT)", "setting": "[2]", "value": "B (a value above 5 °C and less than or equal to 10 °C is marked “B”)"}]}]}
